Assay results as given in patent publication EP0093484A2, “Antibacterial monic acid derivatives” (BEECHAM GROUP PLC, priority 1982, dated 1983).
Values after ≈ are worked out from the molar mass of the structure shown.

Legend:
M. suipneumoniae HK(2) = assay: Anti-mycoplasmal activity, MIC in Friis broth agarose; assay type: cell-based; details: Mesomycoplasma hyopneumoniae, 144 h, Friis broth solidified with 0.9% agarose, 6 days incubation at 37°C, read-out: MIC
M. bovis NCTC 10131 = assay: microbe, parasite or virus in culture; assay type: cell-based; details: NCTC10131, 144 h
M. hyorhinis ATCC 23234 = assay: Anti-mycoplasmal activity, MIC in Friis broth agarose; assay type: cell-based; details: Mesomycoplasma hyorhinis, ATCC23234, 144 h, Friis broth solidified with 0.9% agarose, 6 days incubation at 37°C, read-out: MIC
[1] = test system: Haemophilus influenzae Wy21; assay: Human bacteria, MIC by serial dilution in nutrient agar; assay type: cell-based; details: nutrient agar with 5% chocolated horse blood, 18 hours at 37°C, read-out: MIC
[2] = test system: M. suipneumoniae PW/C/210; assay: Anti-mycoplasmal activity, MIC in Friis broth agarose; assay type: cell-based; details: Mesomycoplasma hyopneumoniae, 144 h, Friis broth solidified with 0.9% agarose, 6 days incubation at 37°C, read-out: MIC
[3] = test system: Haemophilus influenzae Q1; assay: Human bacteria, MIC by serial dilution in nutrient agar; assay type: cell-based; details: nutrient agar with 5% chocolated horse blood, 18 hours at 37°C, read-out: MIC
[4] = test system: M. hyosynoviae ATCC 25591; assay: Anti-mycoplasmal activity, MIC in Friis broth agarose; assay type: cell-based; details: 144 h, Friis broth solidified with 0.9% agarose, 6 days incubation at 37°C, read-out: MIC
M. suipneumoniae LABER = assay: as above; assay type: cell-based; details: Mesomycoplasma hyopneumoniae, 144 h, Friis broth solidified with 0.9% agarose, 6 days incubation at 37°C, read-out: MIC
Strep. uberis SPU1 = assay: Veterinary bacteria, MIC by two fold serial dilution in agar; details: Streptococcus uberis, SPU1, 18 h
Description: (§1) The activity of the compounds of the Examples against various organisms important in veterinary infections was determined using two fold serial dilutions in Diagnostic Sensitivity Test Agar inoculated with 10^4 organisms.

Staph. aureus W2827 = assay: Human bacteria, MIC by serial dilution in nutrient agar; assay type: cell-based; details: Staphylococcus aureus, nutrient agar with 5% chocolated horse blood, 18 hours at 37°C, read-out: MIC
Staph. aureus Oxford = assay: Veterinary bacteria, MIC by two fold serial dilution in agar; details: Staphylococcus aureus, 18 h
Description: as §1

[5] = test system: Staph. aureus 152 (pen. sens.); assay: as above; details: Staphylococcus aureus, 18 h
Description: as §1

Strep. faecalis I = assay: Human bacteria, MIC by serial dilution in nutrient agar; assay type: cell-based; details: Enterococcus faecalis, nutrient agar with 5% chocolated horse blood, 18 hours at 37°C, read-out: MIC
[6] = test system: Pasteurella multocida 1633; assay: as above; assay type: cell-based; details: nutrient agar with 5% chocolated horse blood, 18 hours at 37°C, read-out: MIC
[7] = test system: Corynebacterium xerosis 9755; assay: as above; assay type: cell-based; details: nutrient agar with 5% chocolated horse blood, 18 hours at 37°C, read-out: MIC
Strep. dysgalactiae SPD1 = assay: Veterinary bacteria, MIC by two fold serial dilution in agar; details: Streptococcus dysgalactiae, SPD1, 18 h
Description: as §1

P. mirabilis 889 = assay: Human bacteria, MIC by serial dilution in nutrient agar; assay type: cell-based; details: Proteus mirabilis, nutrient agar with 5% chocolated horse blood, 18 hours at 37°C, read-out: MIC
Bord. bronchiseptica B08 = assay: Veterinary bacteria, MIC by two fold serial dilution in agar; details: Bordetella bronchiseptica, B08, 18 h
Description: as §1

Ps. aeruginosa 10662 = assay: Human bacteria, MIC by serial dilution in nutrient agar; assay type: cell-based; details: Pseudomonas aeruginosa, nutrient agar with 5% chocolated horse blood, 18 hours at 37°C, read-out: MIC
[8] = test system: Staph. aureus B4 (pen. resistant); assay: Veterinary bacteria, MIC by two fold serial dilution in agar; details: Staphylococcus aureus, 18 h
Description: as §1

M. suipneumoniae JF 435 = assay: Anti-mycoplasmal activity, MIC in Friis broth agarose; assay type: cell-based; details: Mesomycoplasma hyopneumoniae, JF435, 144 h, Friis broth solidified with 0.9% agarose, 6 days incubation at 37°C, read-out: MIC
S. dublin S7 = assay: Veterinary bacteria, MIC by two fold serial dilution in agar; details: Salmonella enterica, S7, 18 h
Description: as §1

Sarcina lutea 8340 = assay: Human bacteria, MIC by serial dilution in nutrient agar; assay type: cell-based; details: Micrococcus luteus, nutrient agar with 5% chocolated horse blood, 18 hours at 37°C, read-out: MIC
M. dispar NCTC 10125 = assay: Anti-mycoplasmal activity, MIC in Friis broth agarose; assay type: cell-based; details: 144 h, Friis broth solidified with 0.9% agarose, 6 days incubation at 37°C, read-out: MIC
[9] = test system: Corynebacterium pyogenes CY1; assay: Veterinary bacteria, MIC by two fold serial dilution in agar; details: CY1, 18 h
Description: as §1

E. coli ESS = assay: Human bacteria, MIC by serial dilution in nutrient agar; assay type: cell-based; details: Escherichia coli, nutrient agar with 5% chocolated horse blood, 18 hours at 37°C, read-out: MIC
[10] = test system: M. suipneumoniae ATCC 25095; assay: Anti-mycoplasmal activity, MIC in Friis broth agarose; assay type: cell-based; details: Mesomycoplasma hyopneumoniae, ATCC25095, 144 h, Friis broth solidified with 0.9% agarose, 6 days incubation at 37°C, read-out: MIC
Bord. bronchiseptica BO9 = assay: Veterinary bacteria, MIC by two fold serial dilution in agar; details: Bordetella bronchiseptica, BO9, 18 h
Description: as §1

Strep. pneumoniae CN33 = assay: Human bacteria, MIC by serial dilution in nutrient agar; assay type: cell-based; details: Streptococcus pneumoniae, nutrient agar with 5% chocolated horse blood, 18 hours at 37°C, read-out: MIC
S. typhimurium S18 = assay: Veterinary bacteria, MIC by two fold serial dilution in agar; details: Salmonella enterica, TYPHIMURIUM, 18 h
Description: as §1

M. gallisepticum S6 = assay: Anti-mycoplasmal activity, MIC in Friis broth agarose; assay type: cell-based; details: Mycoplasmoides gallisepticum, 144 h, Friis broth solidified with 0.9% agarose, 6 days incubation at 37°C, read-out: MIC
M. pneumoniae ATCC 15492 = assay: as above; assay type: cell-based; details: Mycoplasmoides pneumoniae, ATCC15492, 144 h, Friis broth solidified with 0.9% agarose, 6 days incubation at 37°C, read-out: MIC
M. suipneumoniae TAM 6N = assay: as above; assay type: cell-based; details: Mesomycoplasma hyopneumoniae, TAM6N, 144 h, Friis broth solidified with 0.9% agarose, 6 days incubation at 37°C, read-out: MIC
K. aerogenes A = assay: Human bacteria, MIC by serial dilution in nutrient agar; assay type: cell-based; details: Klebsiella aerogenes, nutrient agar with 5% chocolated horse blood, 18 hours at 37°C, read-out: MIC
Past. multocida PA1 = assay: Veterinary bacteria, MIC by two fold serial dilution in agar; details: Pasteurella multocida, PA1, 18 h
Description: as §1

E. coli E1 = assay: as above; details: Escherichia coli, E1, 18 h
Description: as §1

Past. haemolytica PA5 = assay: as above; details: Mannheimia haemolytica, PA5, 18 h
Description: as §1

E. coli NCTC 10418 = assay: Human bacteria, MIC by serial dilution in nutrient agar; assay type: cell-based; details: Escherichia coli, NCTC10418; E. coli NCTC 10418 (human panel); nutrient agar with 5% chocolated horse blood; 18 hours at 37°C; read-out: MIC
[11] = test system: Strep. pyogenes R80/421-A; assay: as above; assay type: cell-based; details: Streptococcus pyogenes, nutrient agar with 5% chocolated horse blood, 18 hours at 37°C, read-out: MIC
Strep. spp. 64/848-C = assay: as above; assay type: cell-based; details: nutrient agar with 5% chocolated horse blood, 18 hours at 37°C, read-out: MIC

Compound	MIC (M. suipneumoniae HK(2))	MIC (M. bovis NCTC 10131)	MIC (M. hyorhinis ATCC 23234)	MIC [1]	MIC [4]	MIC (M. suipneumoniae LABER)	MIC (Strep. uberis SPU1)	MIC (Staph. aureus W2827)	MIC (Staph. aureus Oxford)	MIC [5]	MIC (Strep. faecalis I)	MIC [6]	MIC [7]	MIC (Strep. dysgalactiae SPD1)	MIC (P. mirabilis 889)	MIC (Bord. bronchiseptica B08)	MIC (Ps. aeruginosa 10662)	MIC [8]	MIC (M. suipneumoniae JF 435)	MIC (S. dublin S7)	also measured
CC(=CC(=O)OCc1cccc(S(C)(=O)=O)c1)CC1OCC(CC2OC2C(C)C(C)O)C(O)C1O (stereo not drawn) [Example 7, m-Methylsulfonylbenzyl monate A]	1 µg/mL (≈ 1.95 µM)	0.025 µg/mL (≈ 0.0488 µM)	0.5 µg/mL (≈ 0.975 µM)	0.5 µg/mL (≈ 0.975 µM)	0.25 µg/mL (≈ 0.488 µM)	0.5 µg/mL (≈ 0.975 µM)	0.625 µg/mL (≈ 1.22 µM)	5 µg/mL (≈ 9.75 µM)	2.5 µg/mL (≈ 4.88 µM)	2.5 µg/mL (≈ 4.88 µM)	> 100 µg/mL	2.5 µg/mL (≈ 4.88 µM)	> 100 µg/mL	1.25 µg/mL (≈ 2.44 µM)	> 100 µg/mL	> 80 µg/mL	> 100 µg/mL	2.5 µg/mL (≈ 4.88 µM)	1 µg/mL (≈ 1.95 µM)	> 80 µg/mL	MIC [2]: 0.5 µg/mL (≈ 0.975 µM); MIC [3]: 0.5 µg/mL (≈ 0.975 µM); MIC (Sarcina lutea 8340): > 100 µg/mL; MIC (M. dispar NCTC 10125): 0.25 µg/mL (≈ 0.488 µM); MIC [9]: > 80 µg/mL; MIC (E. coli ESS): 2.5 µg/mL (≈ 4.88 µM); MIC [10]: 0.5 µg/mL (≈ 0.975 µM); MIC (Bord. bronchiseptica BO9): 20 µg/mL (≈ 39 µM); MIC (Strep. pneumoniae CN33): 1 µg/mL (≈ 1.95 µM); MIC (S. typhimurium S18): > 80 µg/mL; MIC (M. gallisepticum S6): 5 µg/mL (≈ 9.75 µM); MIC (M. pneumoniae ATCC 15492): 2.5 µg/mL (≈ 4.88 µM); MIC (M. suipneumoniae TAM 6N): 1 µg/mL (≈ 1.95 µM); MIC (K. aerogenes A): > 100 µg/mL; MIC (Past. multocida PA1): 2.5 µg/mL (≈ 4.88 µM); MIC (E. coli E1): > 80 µg/mL; MIC (Past. haemolytica PA5): 10 µg/mL (≈ 19.5 µM); MIC (E. coli NCTC 10418): > 100 µg/mL
CC(=CC(=O)OC(C)c1ccc(S(C)(=O)=O)cc1)CC1OCC(CC2OC2C(C)C(C)O)C(O)C1O (stereo not drawn) [Example 9, 1-(p-Methylsulfonylphenyl)ethyl monate A]	1 µg/mL (≈ 1.9 µM)	< 0.01 µg/mL	0.5 µg/mL (≈ 0.949 µM)	0.5 µg/mL (≈ 0.949 µM)	0.25 µg/mL (≈ 0.475 µM)	0.5 µg/mL (≈ 0.949 µM)	0.312 µg/mL (≈ 0.592 µM)	16 µg/mL (≈ 30.4 µM)	10 µg/mL (≈ 19 µM)	5 µg/mL (≈ 9.49 µM)	> 128 µg/mL	8 µg/mL (≈ 15.2 µM)	> 128 µg/mL	0.625 µg/mL (≈ 1.19 µM)	> 128 µg/mL	> 80 µg/mL	> 128 µg/mL	5 µg/mL (≈ 9.49 µM)	1 µg/mL (≈ 1.9 µM)	> 80 µg/mL	MIC (M. dispar NCTC 10125): 0.05 µg/mL (≈ 0.0949 µM); MIC [9]: > 80 µg/mL; MIC (E. coli ESS): 4 µg/mL (≈ 7.6 µM); MIC [10]: 0.5 µg/mL (≈ 0.949 µM); MIC (Bord. bronchiseptica BO9): 80 µg/mL (≈ 152 µM); MIC (Strep. pneumoniae CN33): 4 µg/mL (≈ 7.6 µM); MIC (S. typhimurium S18): > 80 µg/mL; MIC (M. gallisepticum S6): 10 µg/mL (≈ 19 µM); MIC (M. pneumoniae ATCC 15492): 0.5 µg/mL (≈ 0.949 µM); MIC [11]: 1 µg/mL (≈ 1.9 µM); MIC (Strep. spp. 64/848-C): 4 µg/mL (≈ 7.6 µM); MIC (M. suipneumoniae TAM 6N): 1 µg/mL (≈ 1.9 µM); MIC (K. aerogenes A): > 128 µg/mL; MIC (Past. multocida PA1): 5 µg/mL (≈ 9.49 µM); MIC (E. coli E1): > 80 µg/mL; MIC (Past. haemolytica PA5): 40 µg/mL (≈ 76 µM); MIC (E. coli NCTC 10418): > 128 µg/mL
